Results as given in the supplement of paper PMC10307832.

Compound: COc1cccc2c1C(=O)c1c(O)c3c(c(O)c1C2=O)C[C@@](O)(C(=O)CO)C[C@@H]3O[C@H]1C[C@H](N)[C@H](O)[C@H](C)O1 [Doxorubicin] + Cc1cc(Nc2cc(N3CCN(C)CC3)nc(Sc3ccc(NC(=O)C4CC4)cc3)n2)n[nH]1 [Tozasertib] (partner 0.1 µM)
Test: relative viability (nuclei count vs DMSO), 5 days (fraction); higher = more cells survive
Conditions: first compound 0.1 µM
Summary of the method: (§1)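 Relative viability equals treated-well nuclei counts divided by vehicle-well nuclei counts. Counts came from 4× images of lung cancer cell lines grown in 1536-well plates for 5 days after pin-tool dosing on the day after seeding. Dosing used one drug alone or a fixed anchor-drug dose plus five library-drug doses (not always all listed) in √10 steps, and values are medians of duplicate plates.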

| Cell Line | relative viability |
| --- | --- |
| EKVX | 0.342 |

Compound: COC1=C(C=C(C=C1)C2=CC3=NC=CN3C(=N2)NC4=C(C=CC=N4)C(=O)N)OC [BAY61-3606] + Cc1nc(Nc2ncc(C(=O)Nc3c(C)cccc3Cl)s2)cc(N2CCN(CCO)CC2)n1 [Dasatinib] (partner 0.075 µM)
Test: as above
Conditions: first compound 0.02 µM
Summary of the method: as §1

| Cell Line | relative viability |
| --- | --- |
| BEN | 0.342 |
| HARA | 0.168 |
| SW 900 | 0.84 |
| HCC-827 | 0.332 |
| NCI-H520 | 0.191 |
| LOU-NH91 | 0.538 |
| NCI-H2023 | 0.639 |
| A-427 | 0.722 |
| NCI-H647 | 0.193 |
| NCI-H1755 | 0.415 |
| NCI-H650 | 0.52 |
| NCI-H3122 | 0.838 |
| NCI-H441 | 0.614 |
| NCI-H1395 | 0.385 |
| 201T | 0.545 |
| NCI-H1975 | 0.378 |

| Cell Line | relative viability |
| --- | --- |
| HOP-62 | 0.744 |
| NCI-H2405 | 0.203 |
| NCI-H1355 | 0.68 |
| NCI-H838 | 0.284 |
| CAL-12T | 0.495 |
| NCI-H1666 | 0.841 |
| EPLC-272H | 0.386 |
| NCI-H2347 | 0.328 |
| NCI-H1915 | 0.313 |
| NCI-H1437 | 0.382 |
| NCI-H460 | 0.574 |
| NCI-H2085 | 0.281 |
| HCC-15 | 0.696 |
| NCI-H1944 | 0.216 |
| EKVX | 0.602 |

Same assay, conditions: first compound 0.06325 µM

| Cell Line | relative viability |
| --- | --- |
| BEN | 0.309 |
| HARA | 0.233 |
| SW 900 | 0.559 |
| HCC-827 | 0.328 |
| NCI-H520 | 0.193 |
| LOU-NH91 | 0.495 |
| NCI-H2023 | 0.601 |
| A-427 | 0.681 |
| NCI-H647 | 0.158 |
| PC-3 [JPC-3] | 1.07 |
| NCI-H1755 | 0.412 |
| NCI-H650 | 0.378 |
| NCI-H3122 | 0.882 |
| NCI-H441 | 0.655 |
| NCI-H1395 | 0.404 |
| 201T | 0.509 |

| Cell Line | relative viability |
| --- | --- |
| NCI-H1975 | 0.31 |
| HOP-62 | 0.729 |
| NCI-H2405 | 0.205 |
| NCI-H1355 | 0.627 |
| NCI-H838 | 0.299 |
| CAL-12T | 0.383 |
| NCI-H1666 | 0.804 |
| EPLC-272H | 0.385 |
| NCI-H2347 | 0.3 |
| NCI-H1915 | 0.312 |
| NCI-H1437 | 0.355 |
| NCI-H460 | 0.493 |
| NCI-H2085 | 0.226 |
| HCC-15 | 0.59 |
| NCI-H1944 | 0.205 |
| EKVX | 0.455 |

Same assay, conditions: first compound 0.2 µM

| Cell Line | relative viability |
| --- | --- |
| BEN | 0.296 |
| HARA | 0.323 |
| SW 900 | 0.706 |
| HCC-827 | 0.363 |
| NCI-H520 | 0.216 |
| LOU-NH91 | 0.513 |
| NCI-H2023 | 0.554 |
| A-427 | 0.673 |
| NCI-H647 | 0.189 |
| PC-3 [JPC-3] | 1 |
| NCI-H1755 | 0.432 |
| NCI-H650 | 0.363 |
| NCI-H3122 | 0.736 |
| NCI-H441 | 0.54 |
| NCI-H1395 | 0.387 |
| 201T | 0.546 |

| Cell Line | relative viability |
| --- | --- |
| NCI-H1975 | 0.367 |
| HOP-62 | 0.691 |
| NCI-H2405 | 0.201 |
| NCI-H1355 | 0.65 |
| NCI-H838 | 0.291 |
| CAL-12T | 0.404 |
| NCI-H1666 | 0.813 |
| EPLC-272H | 0.315 |
| NCI-H2347 | 0.283 |
| NCI-H1915 | 0.344 |
| NCI-H1437 | 0.391 |
| NCI-H460 | 0.533 |
| NCI-H2085 | 0.285 |
| HCC-15 | 0.592 |
| NCI-H1944 | 0.232 |
| EKVX | 0.436 |

Same assay, conditions: first compound 0.6325 µM

| Cell Line | relative viability |
| --- | --- |
| BEN | 0.318 |
| HARA | 0.245 |
| SW 900 | 0.457 |
| HCC-827 | 0.315 |
| NCI-H520 | 0.184 |
| LOU-NH91 | 0.538 |
| NCI-H2023 | 0.525 |
| A-427 | 0.765 |
| NCI-H647 | 0.164 |
| PC-3 [JPC-3] | 0.928 |
| NCI-H1755 | 0.397 |
| NCI-H650 | 0.428 |
| NCI-H3122 | 0.897 |
| NCI-H441 | 0.521 |
| NCI-H1395 | 0.383 |
| 201T | 0.548 |

| Cell Line | relative viability |
| --- | --- |
| NCI-H1975 | 0.282 |
| HOP-62 | 0.844 |
| NCI-H2405 | 0.181 |
| NCI-H1355 | 0.662 |
| NCI-H838 | 0.251 |
| CAL-12T | 0.479 |
| NCI-H1666 | 0.742 |
| EPLC-272H | 0.41 |
| NCI-H2347 | 0.332 |
| NCI-H1915 | 0.314 |
| NCI-H1437 | 0.382 |
| NCI-H460 | 0.421 |
| NCI-H2085 | 0.248 |
| HCC-15 | 0.551 |
| NCI-H1944 | 0.21 |
| EKVX | 0.58 |

Same assay, conditions: first compound 2 µM

| Cell Line | relative viability |
| --- | --- |
| BEN | 0.321 |
| HARA | 0.28 |
| SW 900 | 0.303 |
| HCC-827 | 0.24 |
| NCI-H520 | 0.151 |
| LOU-NH91 | 0.489 |
| NCI-H2023 | 0.334 |
| A-427 | 0.647 |
| NCI-H647 | 0.0812 |
| PC-3 [JPC-3] | 0.862 |
| NCI-H1755 | 0.317 |
| NCI-H650 | 0.361 |
| NCI-H3122 | 0.691 |
| NCI-H441 | 0.438 |
| NCI-H1395 | 0.399 |
| 201T | 0.571 |
| NCI-H1975 | 0.253 |
| HOP-62 | 0.634 |
| NCI-H2405 | 0.185 |
| NCI-H1355 | 0.67 |
| NCI-H838 | 0.237 |
| CAL-12T | 0.131 |
| NCI-H1666 | 0.652 |
| EPLC-272H | 0.275 |
| NCI-H2347 | 0.319 |
| NCI-H1915 | 0.272 |
| NCI-H1437 | 0.403 |
| NCI-H460 | 0.284 |
| NCI-H2085 | 0.25 |
| HCC-15 | 0.483 |
